For test [1], the system named is JAK1/TYK2 pSTAT5 (Tyr694/699) in THP-1 cell line. Kind of test: IFNa-stimulated JAK1/TYK2 pSTAT5 (Tyr694/699) inhibition cellular assay, AlphaLISA. Format: cell-based. To be noted: THP-1 cells, IFNa-stimulated, AlphaLISA (Assay B), read-out: Cellular_THP1_IFNa-pSTATS_TYK2. The protocol: Assay B: JAK1/TYK2 pSTAT5 (Tyr694/699) inhibition IC50 Cellular Assays
To evaluate the inhibition effect of compounds disclosed herein against TYK2, an IFNa-stimulated JAE1/TYK2 pSTAT5 (Tyr694/699) quantification assay was conducted in the THP-1 cell line using an AlphaLISA detection method (PerkinElmer ALSU-PST5). Compounds in DMSO were serially diluted in a 96-well plate (10 mM starting concentration, 6-fold dilutions, 8 concentrations total) prior to dispensing of 8 nL into a 384-well plate using an I.DOT non-contact liquid handler (Dispendix). Cells were collected via centrifugation at 300 ref for 5 min and resuspended in Hanks' Balanced Salt Solution (Gibco 14175-079), and 6 μl containing 2e4 cells was dispensed into each well of the 384-well plate containing test compounds or DMSO alone (final concentrations: 10000, 1666.67, 277.78, 46.30, 7.72, 1.29, 0.21 and 0.04 nM). Cells were then incubated for 1 h at 37° C. with 5% CO2 prior to the addition of 2 μL IFNa (100 ng/mL; PBL Assay Science 11175-1). Following an additional 30 min incubation at 37° C. with 5% CO2, 2 μL of 5× lysis buffer was added to each well using the I.DOT […]. Plates were sealed and incubated at RT for 10 min on a plate shaker set to 400 RPM. Cell lysates were then frozen at −80° C. before subsequent detection of pSTAT5 by AlphaLISA. At the time of the detection assay, cell lysates were thawed for 5 min at room temperature and then on a plate shaker set to 400 RPM for an additional 10 min. Following the manufacturer recommended protocol (Perkin Elmer), 5 μL of acceptor bead master mix was added to each well; plates were then resealed and incubated for 2 min at RT on a plate shaker (400 rpm) prior to an additional 2-h incubation without agitation (protected from light). Donor bead master mix, 5 uL per well, was then added to each well before 2 min of shaking (RT, 400 rpm) and 2-h incubation (RT, no shaking, protected from light). Levels of pSTAT5 protein were then measured as fluorescent signal at 615 nm with an EnVision multimode plate reader (Perkin Elmer). IC50 values were calculated in Dotmatics using the four-parameter logistic curve regression model with bottom fixed to 0 and Hill Slope fixed to −1.

In the next test the target is T1, TYK2 JH2 (Homo sapiens, UniProt P29597).
T1 construct: purchased DiscoverX (KINOMEscan KdELECT service); host or cells: E. coli BL21-derived (T7 phage display) or HEK-293
In words: TYK2 JH2 binding assay (KINOMEscan KdELECT competitive binding). Conditions: TYK2 JH2 domain, read-out: Biochemical TYK2_DiscoverX_JH2_BND_Kd. Here is the method:
Assay A: TYK2 JH2 Binding Assay
Competitive binding studies using TKY2 JH2-domain fragments were conducted by DiscoverX using the KINOMEscan (KdELECT) platform. Kinase-tagged T7 phage strains were prepared in an E. coli host derived from the BL21 strain. E. coli were grown to log-phase and infected with […] and incubated with shaking at 32° C. until lysis. The lysates were centrifuged and filtered to remove cell debris. The remaining kinases were produced in HEK-293 cells and subsequently tagged with DNA for qPCR detection. Streptavidin-coated magnetic beads were treated with biotinylated small molecule ligands for 30 minutes at room temperature to generate affinity resins for kinase assays. The liganded beads were blocked with excess biotin and washed with blocking buffer (SeaBlock (Pierce), 1% BSA, 0.05% Tween 20, 1 mM DTT) to remove unbound ligand and to reduce non-specific binding. Binding reactions were assembled by combining kinases, liganded affinity beads, and test compounds in 1× binding buffer (20% SeaBlock, 0.17×PBS, 0.05% Tween 20, 6 mM DTT). Test compounds were prepared as 111× stocks in 100% DMSO. Kds were determined using an 11-point 3-fold compound dilution series with three DMSO control points. All compounds for Kd measurements are distributed by acoustic transfer (non-contact dispensing) in 100% DMSO. The compounds were then diluted directly into the assays such that the final concentration of DMSO was 0.9%. All reactions performed in polypropylene 384-well plate. Each was a final volume of 0.02 ml. The assay plates were incubated at room temperature with shaking for 1 hour and the affinity beads were washed with wash buffer (1×PBS, 0.05% Tween 20). The beads were then re-suspended in elution buffer (1×PBS, 0.05% Tween 20, 0.5 μM non-biotinylated affinity ligand) and incubated at room temperature with shaking for 30 minutes. The kinase concentration in the eluates was measured by qPCR.

[2] abbreviates: DiscoverX KINOMEscan KdELECT (Assay A).

Experimental findings from US20240025906A1 (NEURON23, INC., priority 2022, published 2024) are described below.

Read-outs that look alike come from different tables or passages of the source. A value given as a limit tells only on which side of the number the result lay.

T1 sequence (P29597 589-875 limits assumed): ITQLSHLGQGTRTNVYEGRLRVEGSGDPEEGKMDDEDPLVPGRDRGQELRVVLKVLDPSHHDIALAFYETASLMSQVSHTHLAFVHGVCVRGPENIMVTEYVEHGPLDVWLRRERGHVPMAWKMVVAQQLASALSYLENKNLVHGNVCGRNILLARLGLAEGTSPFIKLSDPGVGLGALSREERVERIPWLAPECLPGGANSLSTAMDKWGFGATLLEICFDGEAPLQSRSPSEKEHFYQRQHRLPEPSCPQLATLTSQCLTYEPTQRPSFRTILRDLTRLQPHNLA

In the case of `[2H]C([2H])([2H])Nc1ncc(-c2nc3ccccc3o2)c2cc(NC(=O)C3CC3F)ncc12` (racemic) [Example 434, N-(5-(benzo[d]oxazol-2-yl)-8-((methyl-d3)amino)-2,7-naphthyridin-3-yl)-2-fluorocyclopropane-1-carboxamide], in test [1], the IC50 is at most 0.5 µM. In addition, the Kd at TYK2 JH2 (setting [2]) is at most 0.1 µM.

`[2H]C([2H])([2H])Nc1ncc(-c2nc3cc(OC)ccc3o2)c2cc(NC(=O)[C@H]3C[C@H]3C)ncc12` (racemic) [Example 436, N-(5-(5-methoxybenzo[d]oxazol-2-yl)-8-((methyl-d3)amino)-2,7-naphthyridin-3-yl)-2-methylcyclopropane-1-carboxamide]: in test [1] (Homo sapiens), the IC50 is at most 0.5 µM. Further, the Kd at TYK2 JH2 (setting [2]) was at most 0.1 µM.

Consider `CNc1ncc(-c2nc3ccc(N4CC(C)OC(C)C4)cn3n2)c2cc(NC(=O)C3CC3)ncc12` (racemic) [Example 480, N-(5-(6-(2,6-dimethylmorpholino)-[1,2,4]triazolo[1,5-a]pyridin-2-yl)-8-(methylamino)-2,7-naphthyridin-3-yl)cyclopropanecarboxamide (trans racemate)], for which, in test [1] (Homo sapiens), the IC50 was at most 0.5 µM. The Kd at TYK2 JH2 (setting [2]) was at most 0.1 µM.

Take `[2H]C([2H])([2H])Nc1ncc(-c2nc3ccccn3n2)c2cc(NC(=O)C3CC3F)ncc12` (racemic) [Example 564, N-(5-([1,2,4]triazolo[1,5-a]pyridin-2-yl)-8-((methyl-d3)amino)-2,7-naphthyridin-3-yl)-2-fluorocyclopropane-1-carboxamide]: the IC50 in test [1] (Homo sapiens) is at most 0.5 µM. Besides, the Kd at TYK2 JH2 (setting [2]) was at most 0.1 µM.

Turning to `[2H]C([2H])([2H])Nc1ncc(-c2nc3ccccn3n2)c2cc(NC(=O)C3CC3F)ncc12` (racemic) [Example 565, N-(5-([1,2,4]triazolo[1,5-a]pyridin-2-yl)-8-((methyl-d3)amino)-2,7-naphthyridin-3-yl)-2-fluorocyclopropane-1-carboxamide], the IC50 in test [1] was at most 0.5 µM. The Kd on TYK2 JH2 (setting [2]) was at most 0.1 µM.

In the case of `CNc1ncc(/C=C/c2ccc3c(c2)OCC(COC)O3)c2cc(NC(=O)C3CC3)ncc12` (racemic) [Example 789, (E)-N-(5-(2-(2-(methoxymethyl)-2,3-dihydrobenzo[b][1,4]dioxin-6-yl)vinyl)-8-(methylamino)-2,7-naphthyridin-3-yl)cyclopropanecarboxamide], the IC50 in test [1] (Homo sapiens) was at most 0.5 µM. Moreover, the Kd on TYK2 JH2 (KINOMEscan KdELECT (Assay A)) was at most 0.1 µM.

Consider `CNc1ncc(-c2nc3cc(C4CCN([C@@]5(C)COC[C@H]5O)CC4)ccc3o2)c2cc(NC(=O)C3CC3)ncc12` (single isomer, unassigned) [Example 261], for which the IC50 in test [1] (Homo sapiens) was at most 0.5 µM. For the same compound, the Kd at TYK2 JH2 (setting [2]) is at most 0.1 µM.

Regarding `CNc1ncc(-c2nc3cc(C4CCN([C@]5(C)COC[C@@H]5O)CC4)ccc3o2)c2cc(NC(=O)C3CC3)ncc12` (single isomer, unassigned) [Example 262], the IC50 in test [1] (Homo sapiens) was at most 0.5 µM. The Kd at TYK2 JH2 (setting [2]) was at most 0.1 µM.

In the case of `CNc1ncc(-c2nc3cc(N4CCO[C@H](C(C)(F)F)C4)ccc3o2)c2cc(NC(=O)C3CC3)ncc12` (single isomer, unassigned) [Example 331], the IC50 in test [1] (Homo sapiens) was at most 0.5 µM. For the same compound, the Kd at TYK2 JH2 (setting [2]) was at most 0.1 µM.

Regarding `CNc1ncc(-c2nc3cc(N4CCO[C@@H](C(C)(F)F)C4)ccc3o2)c2cc(NC(=O)C3CC3)ncc12` (single isomer, unassigned) [Example 332], the IC50 in test [1] (Homo sapiens) is at most 0.5 µM. Also, the Kd on TYK2 JH2 (setting [2]) was at most 0.1 µM.

As to `CNc1ncc(-c2nc3cc(OC)ccc3o2)c2cc(NC(=O)[C@@H]3C[C@@H]3C(F)F)ncc12` (single isomer, unassigned) [Example 394], the IC50 in test [1] (Homo sapiens) is at most 0.5 µM. On TYK2 JH2 (setting [2]), the Kd was at most 0.1 µM.

`CNc1ncc(-c2nc3cc(OC)ccc3o2)c2cc(NC(=O)[C@@H]3C[C@@H]3C(F)(F)F)ncc12` (single isomer, unassigned) [Example 397]: the IC50 in test [1] (Homo sapiens) is at most 0.5 µM. In addition, the Kd on TYK2 JH2 (setting [2]) was at most 0.1 µM.

For the compound `CNc1ncc(-c2nc3cc(OC)ccc3o2)c2cc(NC(=O)[C@H]3C[C@H]3C(F)(F)F)ncc12` (single isomer, unassigned) [Example 398], in test [1] (Homo sapiens), the IC50 is above 0.5 µM. The Kd on TYK2 JH2 (setting [2]) was at most 0.1 µM.

Regarding `CNc1ncc(-c2nc3cc(OC)ccc3o2)c2cc(NC(=O)[C@@H]3C[C@@H]3CF)ncc12` (single isomer, unassigned) [Example 400], the IC50 in test [1] (Homo sapiens) was at most 0.5 µM. For the same compound, the Kd at TYK2 JH2 (setting [2]) is at most 0.1 µM.

In the case of `CNc1ncc(-c2nc3cc(OC)ccc3o2)c2cc(NC(=O)[C@H]3C[C@H]3CF)ncc12` (single isomer, unassigned) [Example 401], the IC50 in test [1] (Homo sapiens) is at most 0.5 µM. Further, the Kd on TYK2 JH2 (setting [2]) is at most 0.1 µM.

Take `CNc1ncc(-c2nc3cc(N4CCO[C@@H](C)C4)ccc3o2)c2cc(NC(=O)[C@H]3C[C@H]3C(F)F)ncc12` (single isomer, unassigned) [Example 414]: the IC50 in test [1] (Homo sapiens) was at most 0.5 µM. Moreover, on TYK2 JH2 (setting [2]), the Kd is at most 0.1 µM.

On to `CNc1ncc(-c2nc3cc(N4CCO[C@@H](C)C4)ccc3o2)c2cc(NC(=O)[C@@H]3C[C@@H]3C(F)F)ncc12` (single isomer, unassigned) [Example 415], for which, in test [1] (Homo sapiens), the IC50 was at most 0.5 µM. Further, the Kd at TYK2 JH2 (setting [2]) was at most 0.1 µM.

For the compound `[2H]C([2H])([2H])Nc1ncc(-c2nc3cc(OC)ccc3o2)c2cc(NC(=O)[C@@H]3C[C@@H]3C)ncc12` (single isomer, unassigned) [Example 437], the IC50 in test [1] (Homo sapiens) was at most 0.5 µM. Moreover, the Kd on TYK2 JH2 (setting [2]) was at most 0.1 µM.

In the case of `[2H]C([2H])([2H])Nc1ncc(-c2nc3cc(OC)ccc3o2)c2cc(NC(=O)[C@H]3C[C@H]3C)ncc12` (single isomer, unassigned) [Example 438], the IC50 in test [1] is at most 0.5 µM. Also, at TYK2 JH2 (setting [2]), the Kd was at most 0.1 µM.

In the case of `CNc1ncc(-c2nc3cc(N4CCOCC4)ccc3o2)c2cc(NC(=O)[C@H]3C[C@H]3CF)ncc12` (single isomer, unassigned) [Example 451], the IC50 in test [1] (Homo sapiens) was at most 0.5 µM. Further, the Kd on TYK2 JH2 (setting [2]) was at most 0.1 µM.

Regarding `CNc1ncc(-c2nc3cc(N4CCOCC4)ccc3o2)c2cc(NC(=O)[C@@H]3C[C@@H]3CF)ncc12` (single isomer, unassigned) [Example 452], the IC50 in test [1] (Homo sapiens) is at most 0.5 µM. Moreover, the Kd at TYK2 JH2 (setting [2]) is at most 0.1 µM.

For `CNc1ncc(-c2nc3cc(OC)ccc3o2)c2cc(NC(=O)[C@H]3C[C@H]3CO)ncc12` (single isomer, unassigned) [Example 467], the IC50 in test [1] (Homo sapiens) was at most 0.5 µM. In addition, at TYK2 JH2 (setting [2]), the Kd is at most 0.1 µM.

Take `CNc1ncc(-c2nc3cc(OC)ccc3o2)c2cc(NC(=O)[C@@H]3C[C@@H]3CO)ncc12` (single isomer, unassigned) [Example 468]: the IC50 in test [1] (Homo sapiens) is at most 0.5 µM. Also, the Kd at TYK2 JH2 (setting [2]) was at most 0.1 µM.

On to `CC[C@@H]1C[C@H]1C(=O)Nc1cc2c(-c3nc4ccc(OC)cn4n3)cnc(NC)c2cn1` (single isomer, unassigned) [Example 522], for which, in test [1] (Homo sapiens), the IC50 is at most 0.5 µM. For the same compound, at TYK2 JH2 (setting [2]), the Kd was at most 0.1 µM.
